“Also recorded” adds a separate entry of the source.

This is an account of results in patent US4996225A, “Tri-phenyl alkane derivatives and their oestrogenic, anti-oestrogenic and progestanic uses” (Farmos Group Ltd., priority 1982, dated 1991).

Assay [1] concerns MCF-7 cell line (human mammary adenocarcinoma). Nature of the assay: anti-tumour effect in vitro, growth of MCF-7 cell line (bioluminescence assay, intracellular ATP). The assay is classed as cell-based. To be noted: read-out: Antitumour effect against MCF-7 cell line (IC50 = concentration of compound where 50% inhibition of cell growth could be seen).
Experimental: The anti-tumour effect was studied in vitro as follows:
The amount of living cells after 4 h, 24 h and 48 h incubations were determined by bioluminescence assay (intracellular ATP determination).
inhibition of cell growth could be seen.
In assay [2] the test system is immature mouse uterus. Nature of the assay: oestrogenic effect, uterus weight of immature mice. To be noted: for increase in uterus weight / estrogenic effect: less than that of estradiol 0.05 mg/kg: 5 mg/kg; for estrogenic effect (in words): immature mice, s.c., three days. The assay is classed as in vivo. On the procedure:
(§1) The oestrogen-antiestrogen (progesterone) effect of the new compounds in vivo was determined as follows: (1) The oestrogenic properties were determined by administering the new compounds, suspended in sesame oil, subcutaneously to 21 days old immature mice on three consecutive days. The mice were killed on the fourth day and the uterus was weighed. […] The weight correlates with the oestrogenic effect of the compound tested. […] In this case, the ability of the molecules to inhibit oestrogen-induced uterus weight increase was also investigated.

Assay [3] has as its system estradiol induced weight increase in immature mouse uterus. Nature of the assay: antiestrogenic effect, inhibition of oestrogen-induced uterus weight increase in immature mice. The assay is classed as in vivo. Particulars: for inhibition of estradiol-induced uterus weight increase: estradiol 5 μg/kg; for anti-estrogenic effect (in words): immature mouse uterus; for effect with estradiol (in words) / reduction in the weights of mice uterus, with estradiol: with estradiol 0.05 mg/kg. How it is done:
as §1

In the next assay the target is T1, oestrogen receptors (Rattus norvegicus, UniProt P06211).
T1 construct: rat uterus cytosol preparation; from tissue; host or cells: rat uterus cytosol
T1 sequence (P06211 1-600): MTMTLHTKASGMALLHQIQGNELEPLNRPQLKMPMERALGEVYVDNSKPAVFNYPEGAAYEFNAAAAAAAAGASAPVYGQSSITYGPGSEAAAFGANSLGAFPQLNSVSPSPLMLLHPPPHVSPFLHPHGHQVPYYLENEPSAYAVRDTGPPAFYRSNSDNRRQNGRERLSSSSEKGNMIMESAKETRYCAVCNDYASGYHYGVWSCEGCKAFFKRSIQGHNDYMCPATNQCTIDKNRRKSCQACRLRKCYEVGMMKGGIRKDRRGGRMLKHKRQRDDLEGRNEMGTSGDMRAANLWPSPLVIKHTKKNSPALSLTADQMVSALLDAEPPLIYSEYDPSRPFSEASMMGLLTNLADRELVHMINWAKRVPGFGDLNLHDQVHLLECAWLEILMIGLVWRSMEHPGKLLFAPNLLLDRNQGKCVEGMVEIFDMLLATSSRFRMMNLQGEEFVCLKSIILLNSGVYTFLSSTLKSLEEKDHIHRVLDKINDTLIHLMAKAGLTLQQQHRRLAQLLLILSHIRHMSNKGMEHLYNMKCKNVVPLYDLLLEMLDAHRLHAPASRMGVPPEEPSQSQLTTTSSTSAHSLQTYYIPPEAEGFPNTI
Nature of the assay: affinity for oestrogen receptors, competition with 3H-17-β-estradiol in rat uterus cytosol (dextran-charcoal method). The assay is classed as binding. To be noted: read-out: Estrogen receptor affinity (concentration of compound where 50% competition (inhibition) with 3H-estradiol occurred).

In assay [4] the test system is DMBA-induced rat mammary adenocarcinomas. As to the kind of experiment: antitumour effect in vivo against DMBA-induced rat mammary adenocarcinoma. On the procedure:
The anti-tumour effect was investigated in vivo against DMBA-induced rat mammary adenocarcinomas, transplantable mammary and ovarial adenocarcinoma and transplantable prostatic squamous cell carcinoma by the following methods:
Mammary adenocarcinomas were induced by DMBA in 35-40 days old female rats. […] Tumour size and numbers of tumours were evaluated twice a week. Tumour sizes in the control group, treated with solvent, were compared with the test groups.
The size refers to the width×height of the tumour. The growth rate is a difference between sizes compared with that of the first day of the treatment.

Assay [5] deals with immature mouse uterus. As to the kind of experiment: progestanic effect, uterus weight of immature mice (alone or with medroxyprogesterone acetate). On the set-up: reduction in the weight of a mouse uterus, given alone / reduction in the weight of uterus with medroxyprogesterone / reduction in the weights of mice uterus, given alone: concentration or dose not given beside the values. To be noted: for effect with medroxyprogesterone (in words) / reduction in the weights of mice uterus with medroxyprogesterone, compared to control: with medroxyprogesterone 0.06 mg/kg; for reduction in the weights of mice uterus, given alone: Table 2A. The assay is classed as in vivo.

Experimental for oestrogen receptors: The affinity of the new compounds for oestrogen receptors was determined by the ability to compete with ^3 H-labelled 17-β-estradiol in rat uterus cytosol preparation. After incubation, receptor-bound and receptor-unbound ligands were separated by a known dextrancharcoal method.

For `CN(C)CCOc1ccc(/C(=C(/CCF)c2ccccc2)c2ccccc2)cc1` [Compound 21, 4-fluoro-1,2-diphenyl-1-[4-[2-(N,N-dimethylamino)ethoxy]phenyl]-1-butene], the IC50 is 5000 to 10000 nM in assay [1] and 100 to 1000 nM at oestrogen receptors. Moreover, the “increase in uterus weight” value in the assay with immature mouse uterus [2] is at most 55%. Besides, the “inhibition of estradiol-induced uterus weight increase” value in assay [3] (5 mg/kg) is 68-100%. In assay [4] (rat, in vivo), the “growth rate of the tumours (in words)” value is recorded as “only the growth rate of the tumours was reduced”.

On to `Oc1ccc([C@@H](c2ccccc2)[C@@H](CCCl)c2ccccc2)cc1` (relative stereo) [Compound 14, 4-chloro-1,2-diphenyl-1-(4-hydroxyphenyl)-butane], for which the IC50 in assay [1] is 5000 to 10000 nM. For the same molecule, in the assay on immature mouse uterus [2], the “estrogenic effect: less than that of estradiol 0.05 mg/kg” value (from here on “estrogenic effect: less than that”) is “about 50%”; the “effect given alone: estrogenic (in words)” value is reported as “estrogenic”; the “increase in the weights of mice uterus, given alone” value (from here on “increase in the weights”) is 50%; the “estrogenic effect (in words)” value is “could be seen only at the higher concentrations investigated”. The “inhibition of estradiol induced effect in mouse uterus” value (“inhibition … in mouse uterus” below) in assay [3] (5 mg/kg) turned out to be 20%. Further, in assay [3], the “anti-estrogenic effect (in words)” value is listed as “possessed anti-estrogenic effects”; the “effect with estradiol (in words)” value is “anti-”; the “reduction in the weights of mice uterus, with estradiol” value (“reduction … with estradiol” for short) is 20%. The IC50 at oestrogen receptors lay in the range of 100 to 1000 nM.

As for `Oc1ccc(/C(=C(/CCCl)c2ccccc2)c2ccccc2)cc1` [Compound 15, 4-chloro-1,2-diphenyl-1-(4-hydroxyphenyl)-1-butene], the IC50 in assay [1] is 5000 to 10000 nM. Besides, in the assay on immature mouse uterus [2], the “effect given alone: estrogenic (in words)” value was “estrogenic” and the “increase in the weights” value was 20%. Moreover, in assay [3] (5 mg/kg), the “inhibition … in mouse uterus” value is 25%. In assay [3], the “anti-estrogenic effect (in words)” value is given as “possessed anti-estrogenic effects”; the “effect with estradiol (in words)” value is reported as “anti-”; the “reduction … with estradiol” value is 25%. Moreover, the IC50 on oestrogen receptors was 1000 to 10000 nM.

As for `CN(C)CCOc1ccc(/C(=C(/CCI)c2ccccc2)c2ccccc2)cc1` [Compound 22, 4-iodo-1,2-diphenyl-1-[4-[2-(N,N-dimethylamino)ethoxy]phenyl]-1-butene], the IC50 in assay [1] fell in the range of 1000 to 5000 nM. Also, the “increase in uterus weight” value in the assay on immature mouse uterus [2] is reported as at most 70%. For the same molecule, the “inhibition of estradiol-induced uterus weight increase” value in assay [3] (5 mg/kg) is “less than 67%”. For the same molecule, at oestrogen receptors, the IC50 was 100 to 1000 nM. In assay [4] (rat, in vivo), the “amount of new tumours (in words)” value is on record as “the amount of new tumours decreased” and the “growth rate of the tumours (in words)” value is given as “the growth rate of the tumours decreased”.

For `CNCCOc1ccc(/C(=C(/CCCl)c2ccccc2)c2ccccc2)cc1` [Compound 23, 4-chloro-1,2-diphenyl-1-[4-[2-(N-methylamino)ethoxy]phenyl]-1-butene], the IC50 in assay [1] fell in the range of 1000 to 5000 nM; at oestrogen receptors, 1000 to 10000 nM. Also, the “increase in uterus weight” value with immature mouse uterus [2] is at most 55%. Besides, the “inhibition of estradiol-induced uterus weight increase” value in assay [3] (5 mg/kg) was 68-100%. Besides, in assay [4] (rat, in vivo), the “growth rate of the tumours (in words)” value is “only the growth rate of the tumours was reduced”.

Consider `CN(C)CCOc1ccc(/C(=C(/CCBr)c2ccccc2)c2ccccc2)cc1` [Compound 13, 4-bromo-1,2-diphenyl-1-[4-[2-(N,N-dimethylamino)ethoxy]phenyl]-1-butene], for which, in assay [1], the IC50 lay in the range of 1000 to 5000 nM. In the assay with immature mouse uterus [2], the “estrogenic effect: less than that” value is “about 50%”; the “effect given alone: estrogenic (in words)” value is given as “estrogenic”; the “increase in the weights” value was found to be 50%; the “estrogenic effect (in words)” value is given as “could be seen only at the higher concentrations investigated”. The “inhibition … in mouse uterus” value in assay [3] (5 mg/kg) is on record as 25%. Besides, in assay [3], the “anti-estrogenic effect (in words)” value is “possessed anti-estrogenic effects”; the “effect with estradiol (in words)” value is “anti-”; the “reduction … with estradiol” value is on record as 25%. In the assay on immature mouse uterus [5], the “effect with medroxyprogesterone (in words)” value is given as “weak” and the “reduction in the weights of mice uterus with medroxyprogesterone, compared to control” value (shortened to “reduction in the weights … to control”) was 14%. The IC50 on oestrogen receptors was 100 to 1000 nM. Further, the “antitumour effect against DMBA-induced mammary cancer (in words)” value in assay [4] (compared with compound 7) is reported as “Antitumour effect less than that of compound 7”.

Regarding `CN(C)CCOc1ccc(/C(=C(/CCO)c2ccccc2)c2ccccc2)cc1` [Compound 4, 1,2-diphenyl-1-[4-[2-(N,N-dimethylamino)-ethoxy]-phenyl]-1-buten-4-ol], the IC50 in assay [1] was 1000 to 5000 nM. Moreover, the “estrogenic effect of their own (in words)” value with immature mouse uterus [2] (up to 5 mg/kg) is on record as “no estrogenic effect of their own”. For the same molecule, in assay [3] (0.5 mg/kg), the “inhibition … in mouse uterus” value is 12%. Further, in assay [3] (given alone), the “effect given alone: antiestrogenic (in words)” value was “anti-”. Further, in assay [3], the “anti-estrogenic effect (in words)” value is “possessed anti-estrogenic effects”; the “effect with estradiol (in words)” value is given as “anti-”; the “reduction … with estradiol” value is 21%. Further, in the assay with immature mouse uterus [5] (given alone), the “effect given alone: progestanic (in words)” value is recorded as “progestanic”; the “reduction in the weight of a mouse uterus, given alone” value was found to be 38%; the “reduction in the weights of mice uterus, given alone” value amounted to 31%. For the same molecule, in the assay with immature mouse uterus [5] (with medroxyprogesterone), the “interaction with medroxyprogesterone (in words)” value is reported as “slight inhibition” and the “reduction in the weight of uterus with medroxyprogesterone” value amounted to 17%. In the assay with immature mouse uterus [5], the “effect with medroxyprogesterone (in words)” value is “weak” and the “reduction in the weights … to control” value amounted to 17%. For the same molecule, at oestrogen receptors, the IC50 lay within 1000 to 10000 nM. Further, the “growth rate of tumours compared to controls” value in assay [4] (10 mg/kg) is “one eighth”.

Regarding `Oc1ccc([C@@]2(c3ccccc3)OCCC[C@@H]2c2ccccc2)cc1` (relative stereo) [Compound 5, 2,3-diphenyl-2-(4-hydroxyphenyl)tetrahydropyran], the IC50 in assay [1] was 1000 to 5000 nM. Moreover, in the assay with immature mouse uterus [2], the “estrogenic effect: less than that” value was 41% and the “estrogenic effect (in words)” value was “could be seen only at the higher concentrations investigated”. Further, the “estrogenic effect with increased doses (in words)” value in the assay with immature mouse uterus [2] (increased doses, effect overcame that of medroxyprogesterone) was “a weak estrogenic effect could be seen; also recorded: A slight increase in the weight of uterus”. In addition, in assay [3], the “anti-estrogenic effect (in words)” value is on record as “no antiestrogenic effect” and the “effect with estradiol (in words)” value is given as “no synergism”. The “decrease of weight of mouse uterus” value with immature mouse uterus [5] (0.05 mg/kg) came out at 34%. In the assay with immature mouse uterus [5] (given alone), the “effect given alone: progestanic (in words)” value is reported as “progestanic” and the “reduction in the weights of mice uterus, given alone” value amounted to 34%. Besides, the “progestanic effect (in words)” value in the assay on immature mouse uterus [5] (immature mouse uterus) is “due to its progestanic effect”. Further, the “interaction with medroxyprogesterone (in words)” value with immature mouse uterus [5] (with medroxyprogesterone) is listed as “No inhibition of medroxyprogesterone”. Further, in the assay on immature mouse uterus [5], the “effect with medroxyprogesterone (in words)” value was “no inhibition” and the “reduction in the weights … to control” value is on record as 34%. Moreover, the IC50 on oestrogen receptors fell in the range of 100 to 1000 nM.
